From US20130165635A1 (priority 2010, published 2013) come the findings set out here.

What all share (type): cell-based
The test system of test [1] is Fusarium oxysporum.
Test [2] relates to Magnaporthe grisea. Conditions: 1.56 to 12.56 μg/mL, 100 μL in cup, 25° C. for 1 to 3 days.
Test [3] concerns Trichophyton mentagrophytes.

Numbered stars: 1 amine (or outer) side, 2 acyl side, 3 side chain; on linkers, the order of the positions; unused ones are H or OH. Bridge positions count the residues as written; N and C are the ends. Square brackets hold non-standard residues; d marks the D form. Peptide text beside a SMILES is read from it. X1 = CC(C)CCCCCCCCC[C@H](CC(=O)[*:1])O[*:2]

For the compound `CC(C)CCCCCCCCC[C@@H]1CC(=O)N[C@@H](CCC(=O)O)C(=O)N[C@@H](CC(C)C)C(=O)N[C@H](CC(C)C)C(=O)N[C@@H](C(C)C)C(=O)N[C@@H](CC(=O)O)C(=O)N[C@H](CC(C)C)C(=O)N[C@@H](CC(C)C)C(=O)O1` [surfactin] (EL[dL]VD[dL]L; linker N-C via X1), the “antifungal activity (growth inhibition of test microorganism)” value in test [1] is “did not show antifungal activity”; in test [2], “weaker than iturin A, but slight inhibitory activities”.

Take iturin A: the “antifungal activity (growth inhibition of test microorganism)” value in test [1] is on record as “strong antifungal activity”; in test [3], “strong antifungal activities”; in test [2] it was “strong antifungal activities”.
